In US20240360178A1, “MACROCYCLIC IMMUNOMODULATORS” (Bristol-Myers Squibb Company, priority 2021, published 2024) one finds IC50 data, which are given here for 15 compounds.

Positions of bridges follow the written chain, without caps; N, C: chain ends. Non-standard residues stand in square brackets, D forms with d. Residues, ends and D or L forms follow the SMILES beside them. Bip = N[C@@H](Cc1ccc(-c2ccccc2)cc1)C(=O)O; NMeF = CN[C@@H](Cc1ccccc1)C(=O)O; dTic = O=C(O)[C@H]1Cc2ccccc2CN1; NMeA = CN[C@@H](C)C(=O)O; Orn = NCCC[C@H](N)C(=O)O; Dap = NC[C@H](N)C(=O)O

For the experiment, the target named is T1, human PD-1 (Jurkat-PD-1 cells) / PE-labeled human PD-L1-Ig (Homo sapiens, UniProt Q15116).
T1 construct: expressed in transfected cells; host or cells: Jurkat cell line over-expressing human PD-1
T1 sequence (Q15116 25-288): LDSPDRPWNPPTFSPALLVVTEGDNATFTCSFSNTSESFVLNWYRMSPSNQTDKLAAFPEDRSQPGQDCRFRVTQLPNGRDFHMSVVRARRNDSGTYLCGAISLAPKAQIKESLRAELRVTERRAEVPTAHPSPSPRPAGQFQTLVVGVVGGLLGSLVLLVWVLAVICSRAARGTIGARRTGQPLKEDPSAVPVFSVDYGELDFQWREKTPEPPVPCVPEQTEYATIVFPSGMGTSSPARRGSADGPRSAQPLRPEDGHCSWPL
As to the kind of experiment: Jurkat-PD-1 Cell Binding High-Content Screening Assay (CBA); Jurkat hPD1-PDL1 assay. Conditions: Jurkat cell line over-expressing human PD-1; PE-labeled PD-L1-Ig 20 nM final; compound incubated 2 hours at 37° C.; read-out: Jurkat HPD1-PDL1 IC50. The essentials:
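Jurkat cells overexpressing human PD-1 (8×10^3 per well, DMEM with 10% FCS) were preincubated with compound for 2 hours at 37° C. PE-labeled human PD-L1-Ig was then added at 20 nM final. Binding was quantified by high-content imaging.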
As to `CC(C)C[C@@H]1NC(=O)[C@H](CCCNC(=N)N)NC(=O)[C@H](Cc2ccccc2)N(C)C(=O)[C@H](C)N(C)C(=O)[C@H](CCC(=O)O)NC(=O)[C@H](Cc2ccc(-c3ccccc3)cc2)NC(=O)[C@H](C(C)C)NC(=O)[C@H](Cc2c[nH]c3ccccc23)NC(=O)[C@H](CC(=O)O)NC(=O)[C@H](Cc2ccc(O)cc2)NC(=O)[C@H](Cc2ccccc2)NC(=O)CSC[C@@H](C(=O)N[C@@H](CCC(=O)O)C(N)=O)NC(=O)[C@H]([C@@H](C)O)NC(=O)[C@H](C(C)C)NC1=O` [Example 1351] ({CH2CO}-FYDWV[Bip]E[NMeA][NMeF]RLVTCE-NH2; thioether N-14), the half-maximal inhibitory concentration (IC50) – broadly, the midpoint of a concentration-inhibition curve – stood at 380 nM.

Consider `CC(C)C[C@@H]1NC(=O)[C@H](CCCN)NC(=O)[C@H](Cc2ccccc2)N(C)C(=O)[C@H](C)N(C)C(=O)[C@H](CCCNC(=N)N)NC(=O)[C@H](Cc2ccc(-c3ccccc3)cc2)NC(=O)[C@H](C(C)C)NC(=O)[C@H](Cc2c[nH]c3ccccc23)NC(=O)[C@H](CC(=O)O)NC(=O)[C@H](Cc2ccc(O)cc2)NC(=O)[C@H](CC(N)=O)NC(=O)CSC[C@@H](C(=O)N[C@@H](CCC(=O)O)C(N)=O)NC(=O)[C@H]([C@@H](C)O)NC(=O)[C@H](C(C)C)NC1=O` [Example 1352] ({CH2CO}-NYDWV[Bip]R[NMeA][NMeF][Orn]LVTCE-NH2; thioether N-14), for which the 50% inhibitory concentration (IC50) was 420 nM.

As to `CC(C)C[C@@H]1NC(=O)[C@H](CCCN)NC(=O)[C@H](Cc2ccccc2)N(C)C(=O)[C@H](C)N(C)C(=O)[C@H](CCCNC(=N)N)NC(=O)[C@H](Cc2ccc(-c3ccccc3)cc2)NC(=O)[C@H](C(C)C)NC(=O)[C@H](Cc2c[nH]c3ccccc23)NC(=O)[C@H](CC(=O)O)NC(=O)[C@H](Cc2ccc(O)cc2)NC(=O)[C@H](CC(N)=O)NC(=O)CSC[C@@H](C(=O)N[C@@H](CO)C(N)=O)NC(=O)[C@H]([C@@H](C)O)NC(=O)[C@H](C(C)C)NC1=O` [Example 1353] ({CH2CO}-NYDWV[Bip]R[NMeA][NMeF][Orn]LVTCS-NH2; thioether N-14), the half-inhibitory concentration (IC50) was 90 nM.

For `CC(C)C[C@@H]1NC(=O)[C@H](CCCCN)NC(=O)[C@H](Cc2ccccc2)N(C)C(=O)[C@H](C)N(C)C(=O)[C@H](CCCNC(=N)N)NC(=O)[C@H](Cc2ccc(-c3ccccc3)cc2)NC(=O)[C@H](C(C)C)NC(=O)[C@H](Cc2c[nH]c3ccccc23)NC(=O)[C@H](CC(=O)O)NC(=O)[C@H](Cc2ccc(O)cc2)NC(=O)[C@H](CC(N)=O)NC(=O)CSC[C@@H](C(=O)N[C@@H](CO)C(N)=O)NC(=O)[C@H]([C@@H](C)O)NC(=O)[C@H](C(C)C)NC1=O` [Example 1354] ({CH2CO}-NYDWV[Bip]R[NMeA][NMeF]KLVTCS-NH2; thioether N-14), the IC50 amounted to 210 nM.

In the case of `CC(C)C[C@@H]1NC(=O)[C@H](CCCNC(=N)N)NC(=O)[C@H](Cc2ccccc2)N(C)C(=O)[C@H](C)N(C)C(=O)[C@H](CCCNC(=N)N)NC(=O)[C@H](Cc2ccc(-c3ccccc3)cc2)NC(=O)[C@H](C(C)C)NC(=O)[C@H](Cc2c[nH]c3ccccc23)NC(=O)[C@H](CC(=O)O)NC(=O)[C@H](Cc2ccc(O)cc2)NC(=O)[C@H](CC(N)=O)NC(=O)CSC[C@@H](C(=O)N[C@@H](C)C(N)=O)NC(=O)[C@H]([C@@H](C)O)NC(=O)[C@H](C(C)C)NC1=O` [Example 1355] ({CH2CO}-NYDWV[Bip]R[NMeA][NMeF]RLVTCA-NH2; thioether N-14), the IC50 was 410 nM.

`CC(C)C[C@@H]1NC(=O)[C@H](CCCN)NC(=O)[C@H]2Cc3ccccc3CN2C(=O)[C@H](C)N(C)C(=O)[C@H](CCCNC(=N)N)NC(=O)[C@H](Cc2ccc(-c3ccccc3)cc2)NC(=O)[C@H](C(C)C)NC(=O)[C@H](Cc2c[nH]c3ccccc23)NC(=O)[C@H](CC(=O)O)NC(=O)[C@H](Cc2ccc(O)cc2)NC(=O)[C@H](CC(N)=O)NC(=O)CSC[C@@H](C(=O)N[C@@H](C)C(N)=O)NC(=O)[C@H]([C@@H](C)O)NC(=O)[C@H](C(C)C)NC1=O` [Example 1356] ({CH2CO}-NYDWV[Bip]R[NMeA][dTic][Orn]LVTCA-NH2; thioether N-14): the half-maximal inhibitory concentration (IC50) was 270 nM.

`CC(C)C[C@@H]1NC(=O)[C@H](CCCN)NC(=O)[C@H](Cc2ccccc2)N(C)C(=O)[C@H](C)N(C)C(=O)[C@H](CCCNC(=N)N)NC(=O)[C@H](Cc2ccc(-c3ccccc3)cc2)NC(=O)[C@H](C(C)C)NC(=O)[C@H](Cc2c[nH]c3ccccc23)NC(=O)[C@H](CC(=O)O)NC(=O)[C@H](Cc2ccc(O)cc2)NC(=O)[C@H](Cc2ccccc2)NC(=O)CSC[C@@H](C(=O)N[C@@H](CO)C(N)=O)NC(=O)[C@H]([C@@H](C)O)NC(=O)[C@H](C(C)C)NC1=O` [Example 1357] ({CH2CO}-FYDWV[Bip]R[NMeA][NMeF][Orn]LVTCS-NH2; thioether N-14): the IC50 worked out at 210 nM.

Take `CC(C)C[C@@H]1NC(=O)[C@H](CCCNC(=N)N)NC(=O)[C@H](Cc2ccccc2)N(C)C(=O)[C@H](C)N(C)C(=O)[C@H](CCCNC(=N)N)NC(=O)[C@H](Cc2ccc(-c3ccccc3)cc2)NC(=O)[C@H](C(C)C)NC(=O)[C@H](Cc2c[nH]c3ccccc23)NC(=O)[C@H](CC(=O)O)NC(=O)[C@H](Cc2ccc(O)cc2)NC(=O)[C@H](Cc2ccccc2)NC(=O)CSC[C@@H](C(=O)N[C@@H](C)C(N)=O)NC(=O)[C@H]([C@@H](C)O)NC(=O)[C@H](C(C)C)NC1=O` [Example 1358] ({CH2CO}-FYDWV[Bip]R[NMeA][NMeF]RLVTCA-NH2; thioether N-14): the half-maximal inhibitory concentration (IC50) is 400 nM.

In the case of `CC(C)C[C@@H]1NC(=O)[C@H](CCCCN)NC(=O)[C@H](Cc2ccccc2)N(C)C(=O)[C@H](C)N(C)C(=O)[C@H](CCCNC(=N)N)NC(=O)[C@H](Cc2ccc(-c3ccccc3)cc2)NC(=O)[C@H](C(C)C)NC(=O)[C@H](Cc2c[nH]c3ccccc23)NC(=O)[C@H](CC(=O)O)NC(=O)[C@H](Cc2ccc(O)cc2)NC(=O)[C@H](Cc2ccccc2)NC(=O)CSC[C@@H](C(=O)N[C@@H](CO)C(N)=O)NC(=O)[C@H]([C@@H](C)O)NC(=O)[C@H](C(C)C)NC1=O` [Example 1359] ({CH2CO}-FYDWV[Bip]R[NMeA][NMeF]KLVTCS-NH2; thioether N-14), the IC50 was 270 nM.

As for `CC(C)C[C@@H]1NC(=O)[C@H](CCCCN)NC(=O)[C@H](Cc2ccccc2)N(C)C(=O)[C@H](C)N(C)C(=O)[C@H](CCCNC(=N)N)NC(=O)[C@H](Cc2ccc(-c3ccccc3)cc2)NC(=O)[C@H](C(C)C)NC(=O)[C@H](Cc2c[nH]c3ccccc23)NC(=O)[C@H](CC(=O)O)NC(=O)[C@H](Cc2ccc(O)cc2)NC(=O)[C@H](CC(N)=O)NC(=O)CSC[C@@H](C(=O)N[C@@H](CCC(=O)O)C(N)=O)NC(=O)[C@H]([C@@H](C)O)NC(=O)[C@H](C(C)C)NC1=O` [Example 1360] ({CH2CO}-NYDWV[Bip]R[NMeA][NMeF]KLVTCE-NH2; thioether N-14), the half-inhibitory concentration (IC50) was 570 nM.

With `CC(C)C[C@@H]1NC(=O)[C@H](CCCN)NC(=O)[C@H](Cc2ccccc2)N(C)C(=O)[C@H](C)N(C)C(=O)[C@H](CCCNC(=N)N)NC(=O)[C@H](Cc2ccc(-c3ccccc3)cc2)NC(=O)[C@H](C(C)C)NC(=O)[C@H](Cc2c[nH]c3ccccc23)NC(=O)[C@H](CC(=O)O)NC(=O)[C@H](Cc2ccc(O)cc2)NC(=O)[C@H](Cc2ccccc2)NC(=O)CSC[C@@H](C(=O)N[C@@H](CCC(=O)O)C(N)=O)NC(=O)[C@H]([C@@H](C)O)NC(=O)[C@H](C(C)C)NC1=O` [Example 1361] ({CH2CO}-FYDWV[Bip]R[NMeA][NMeF][Orn]LVTCE-NH2; thioether N-14), the IC50 worked out at 380 nM.

On to `CC(C)C[C@@H]1NC(=O)[C@H](CCCNC(=N)N)NC(=O)[C@H](Cc2ccccc2)N(C)C(=O)[C@H]2CCCN2C(=O)[C@H](CCCNC(=N)N)NC(=O)[C@H](Cc2ccc(-c3ccccc3)cc2)NC(=O)[C@H](C(C)C)NC(=O)[C@H](Cc2c[nH]c3ccccc23)NC(=O)[C@H](CC(=O)O)NC(=O)[C@H](Cc2ccc(O)cc2)NC(=O)[C@H](CC(N)=O)NC(=O)CSC[C@@H](C(=O)N[C@@H](C)C(N)=O)NC(=O)[C@H]([C@@H](C)O)NC(=O)[C@H](C(C)C)NC1=O` [Example 1362] ({CH2CO}-NYDWV[Bip]R[dP][NMeF]RLVTCA-NH2; thioether N-14), for which the half-maximal inhibitory concentration (IC50) was 190 nM.

Turning to `CC(C)C[C@@H]1NC(=O)[C@H](CCCNC(=N)N)NC(=O)[C@H](Cc2ccccc2)N(C)C(=O)[C@@H](C)NC(=O)[C@H](CCCNC(=N)N)NC(=O)[C@H](Cc2ccc(-c3ccccc3)cc2)NC(=O)[C@H](C(C)C)NC(=O)[C@H](Cc2c[nH]c3ccccc23)NC(=O)[C@H](CC(=O)O)NC(=O)[C@H](Cc2ccc(O)cc2)NC(=O)[C@H](CC(N)=O)NC(=O)CSC[C@@H](C(=O)N[C@@H](C)C(N)=O)NC(=O)[C@H]([C@@H](C)O)NC(=O)[C@H](C(C)C)NC1=O` [Example 1363] ({CH2CO}-NYDWV[Bip]R[dA][NMeF]RLVTCA-NH2; thioether N-14), the IC50 worked out at 940 nM.

Regarding `CC(C)C[C@@H]1NC(=O)[C@H](CCCNC(=N)N)NC(=O)[C@H](Cc2ccccc2)N(C)C(=O)[C@H](CN)NC(=O)[C@H](CCCNC(=N)N)NC(=O)[C@H](Cc2ccc(-c3ccccc3)cc2)NC(=O)[C@H](C(C)C)NC(=O)[C@H](Cc2c[nH]c3ccccc23)NC(=O)[C@H](CC(=O)O)NC(=O)[C@H](Cc2ccc(O)cc2)NC(=O)[C@H](CC(N)=O)NC(=O)CSC[C@@H](C(=O)N[C@@H](C)C(N)=O)NC(=O)[C@H]([C@@H](C)O)NC(=O)[C@H](C(C)C)NC1=O` [Example 1364] ({CH2CO}-NYDWV[Bip]R[Dap][NMeF]RLVTCA-NH2; thioether N-14), the IC50 turned out to be 590 nM.

`CC(C)C[C@@H]1NC(=O)[C@H](CCCNC(=N)N)NC(=O)[C@H](Cc2ccccc2)N(C)C(=O)[C@H](CCCCN)NC(=O)[C@H](CCCNC(=N)N)NC(=O)[C@H](Cc2ccc(-c3ccccc3)cc2)NC(=O)[C@H](C(C)C)NC(=O)[C@H](Cc2c[nH]c3ccccc23)NC(=O)[C@H](CC(=O)O)NC(=O)[C@H](Cc2ccc(O)cc2)NC(=O)[C@H](CC(N)=O)NC(=O)CSC[C@@H](C(=O)N[C@@H](C)C(N)=O)NC(=O)[C@H]([C@@H](C)O)NC(=O)[C@H](C(C)C)NC1=O` [Example 1365] ({CH2CO}-NYDWV[Bip]RK[NMeF]RLVTCA-NH2; thioether N-14): the IC50 stood at 760 nM.
